The series in a line: Aqueous solubility of Compound (I) and its salts. The note with it: aqueous medium; free base. The class given is physicochemical. The text has this: In an effort to enhance the solubility of Compound (I) in aqueous vehicle, ‘salt forms’ of Compound (I) were explored.

What is called solubility is the concentration that dissolves in the medium under given conditions. Regarding `COc1ccc(CNc2nc(N3CCC[C@H]3COC(=O)CCCCCO[N+](=O)[O-])ncc2C(=O)NCc2ncccn2)cc1Cl` [Compound (I), [(2S)-1-(4-{[(3-chloro-4-methoxyphenyl)methyl]amino}-5-{[(pyrimidin-2-yl)methyl]carbamoyl}pyrimidin-2-yl)pyrrolidin-2-yl]methyl 6-(nitrooxy)hexanoate], the solubility is 13 µg/mL.

Source of the values: patent publication US20250017928A1, “OPHTHALMIC PHARMACEUTICAL COMPOSITIONS CONTAINING A NITRIC OXIDE-RELEASING PHOSPHODIESTERASE 5 INHIBITOR AND METHOD FOR THE PREPARATION THEREOF” (Nicox SA, priority 2021, published 2025).
